For ten compounds, IC50 results are on record in patent publication US20260008760A1, “DIPEPTIDYL PEPTIDASE 1 INHIBITORS AND USES THEREOF” (Insmed Incorporated, priority 2024, published 2026).

As a reminder, the IC50 is the concentration needed to halve the response being measured.

Some results are limits rather than exact numbers.

One assay has as its target T1, active mouse DPP1 enzyme (Mus musculus, UniProt P97821).
T1 construct: Each subunit is composed of an N-terminal fragment, a heavy chain and a light chain; purchased R&D Systems
The assay is described as follows: Mouse DPP1 Enzyme IC50 Assay. Conditions: active mouse DPP1 enzyme, H-Gly-Arg-AMC substrate, 10 minutes pre-incubation at 37° C., pH 5.5; average of n runs; read-out: Avg. IC50 (Mouse DPP1 enzyme IC50 value ranges). The class given is biochemical. On the procedure: Example 96: Mouse DPP1 Enzyme IC50 Assay
Test articles were applied to active mouse DPP1 enzyme (R&D Systems; Minneapolis, MN) in Assay Buffer (50 mM MES pH 5.5, 50 mM NaCl, 5 mM DTT) in a total reaction volume of 125 μL. 25 μL of compound in Assay Buffer plus […] was first added to 50 μL of active mouse DPP1 enzyme at a concentration of 62.5 pg/μL and allowed to pre-incubate for 10 minutes at 37° C. after which 50 μL of […] H-Gly-Arg-AMC substrate (Bachem; St. Torrance, CA) was added, giving final substrate concentration of 400 µM and a final DMSO concentration of […]. Substrate cleavage was measured for 90 minutes at 37° C., with fluorescence at Excitation/Emission 350/450 nm measured every 5 minutes. DPP1 concentration was interpolated based on its activity relative to a standard curve of recombinant active mouse DPP enzyme. IC50 values for each compound were calculated via the XLFit (IDBS Version 5.3.1.3) Add-On to Microsoft Excel using the four parameter fit equation y=(A+((B−A)/(1+((C/x)^D)))), which appears as equation number 205 (4 Parameter Logistic Model or Sigmoidal Dose-Response Model) in XLFit. Default constraints were used for each Parameter. IC50 was defined as the compound concentration at which 50% of enzyme activity was inhibited when compared to the no-compound control.
In Table 2, *** represent average IC50≤5 nM, ** represents average IC50 in the range of 5-20 nM, and * represents average IC50 in the range of ≥20 nM, where the designations were made solely based on the average value without taking into account of the standard deviations.

A further assay has as its target DPP1 in HL-60 cells (Homo sapiens, UniProt P53634). The assay can be described thus: DPP1 Cell IC50 assay. The class given is cell-based. More on the design: host or cells: HL-60 cells. The conditions noted are these: 60 min pre-incubation, H-Gly-Phe-AFC substrate, average of n runs, read-out: Avg. IC50 (DPP1 Cell IC50 value ranges). A digest of the protocol: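 Intracellular DPP1 activity read as AFC fluorescence (Ex/Em 400/505 nm) after 30 min with H-Gly-Phe-AFC (500 μM stock), following 60 min compound pre-incubation at 37° C with HL-60 cells at 5×10^5 live cells per mL in PBS. IC50 by 4-parameter fit against DMSO-only controls.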

In the next assay the target is human DPP1 enzyme (Homo sapiens, UniProt P53634). The assay can be described thus: Human DPP1 Enzyme IC50 Assay. The class given is biochemical. Set-up: was first proteolytically processed into its mature form using recombinant human cathepsin L; purchased R&D Systems. Conditions: activated recombinant human DPP1, 400 μM H-Gly-Arg-AMC, 10 minutes pre-incubation at 37° C., pH 6.0; average of n runs; read-out: Avg. IC50 (Human DPP1 enzyme IC50 value ranges). A digest of the protocol:
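IC50 came from a four-parameter fit of activity relative to no-compound control, with fluorescence (Ex 350/Em 450 nm) read every 5 min for 90 min at 37 °C using 400 μM final H-Gly-Arg-AMC. Cathepsin L-matured human recombinant DPP1 was preincubated 10 min with compound at pH 6.0 (MES, DTT, 1% DMSO).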

Chain of DPP1 in HL-60 cells (P53634 25-463): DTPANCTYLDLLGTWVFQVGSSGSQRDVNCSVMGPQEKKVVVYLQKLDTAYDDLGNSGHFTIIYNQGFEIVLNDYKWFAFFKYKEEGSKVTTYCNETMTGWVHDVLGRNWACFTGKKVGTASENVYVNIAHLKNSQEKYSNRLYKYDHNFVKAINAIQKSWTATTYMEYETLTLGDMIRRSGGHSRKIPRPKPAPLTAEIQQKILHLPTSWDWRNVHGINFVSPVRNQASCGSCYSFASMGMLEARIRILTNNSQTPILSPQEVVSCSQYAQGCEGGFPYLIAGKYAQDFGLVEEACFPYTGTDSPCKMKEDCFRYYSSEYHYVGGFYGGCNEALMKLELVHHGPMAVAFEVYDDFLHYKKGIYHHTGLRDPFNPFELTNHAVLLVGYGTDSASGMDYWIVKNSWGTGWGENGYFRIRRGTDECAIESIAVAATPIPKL
Chain of human DPP1 enzyme (P53634 25-134 limits assumed): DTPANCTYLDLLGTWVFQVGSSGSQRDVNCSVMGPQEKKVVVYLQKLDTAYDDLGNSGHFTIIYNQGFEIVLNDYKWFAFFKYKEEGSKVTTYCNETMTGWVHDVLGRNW
Chain of human DPP1 enzyme (P53634 231-394 limits assumed): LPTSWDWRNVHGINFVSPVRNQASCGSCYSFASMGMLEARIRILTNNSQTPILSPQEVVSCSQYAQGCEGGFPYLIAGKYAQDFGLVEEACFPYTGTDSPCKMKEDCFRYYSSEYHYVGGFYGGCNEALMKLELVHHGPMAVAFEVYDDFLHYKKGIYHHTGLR
Chain of human DPP1 enzyme (P53634 395-463 limits assumed): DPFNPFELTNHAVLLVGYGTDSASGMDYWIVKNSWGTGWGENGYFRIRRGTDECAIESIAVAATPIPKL
T1 sequence (P97821 25-134 limits assumed): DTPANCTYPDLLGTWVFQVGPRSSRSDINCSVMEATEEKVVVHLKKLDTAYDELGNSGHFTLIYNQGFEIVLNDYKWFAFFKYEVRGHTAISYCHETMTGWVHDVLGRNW
T1 sequence (P97821 231-393 limits assumed): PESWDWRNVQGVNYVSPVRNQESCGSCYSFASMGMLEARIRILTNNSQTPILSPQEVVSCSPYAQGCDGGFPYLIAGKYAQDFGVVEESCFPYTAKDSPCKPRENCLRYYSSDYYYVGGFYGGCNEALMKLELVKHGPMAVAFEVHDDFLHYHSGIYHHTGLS
T1 sequence (P97821 394-462 limits assumed): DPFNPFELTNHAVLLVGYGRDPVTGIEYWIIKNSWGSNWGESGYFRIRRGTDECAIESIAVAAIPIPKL

In the case of `Cc1cn2cc(-c3ccc(C[C@@H](C#N)NC(=O)[C@@H]4CNCCCCO4)c(F)c3)cc2c(C)n1` [Compound A28, (2S)—N-[(1S)-1-cyano-2-(4-{1,3-dimethylpyrrolo[1,2-a]pyrazin-7-yl}-2-fluorophenyl)ethyl]-1,4-oxazocane-2-carboxamide], the IC50 at active mouse DPP1 enzyme was greater than 20 nM; on DPP1 in HL-60 cells it was 1 to 2.5 nM; on human DPP1 enzyme, greater than 15 nM.

`N#C[C@H](Cc1ccc(-c2ccc3c(c2)CCCS3)cc1)NC(=O)[C@@H]1CNCCCO1` [Compound A5, (2S)—N-[(1S)-1-cyano-2-[4-(3,4-dihydro-2H-1-benzothiopyran-6-yl)phenyl]ethyl]-1,4-oxazepane-2-carboxamide]: the IC50 is greater than 20 nM at active mouse DPP1 enzyme, greater than 2.5 nM at DPP1 in HL-60 cells and greater than 15 nM on human DPP1 enzyme.

With `N#C[C@H](Cc1ccc(-c2ccc(S(F)(F)(F)(F)F)cc2)cc1)NC(=O)[C@@H]1CNCCCO1` [Compound 6, (S)—N—((S)-1-cyano-2-(4′-(pentafluoro-16-sulfaneyl)-[1,1′-biphenyl]-4-yl)ethyl)-1,4-oxazepane-2-carboxamide], the IC50 was greater than 20 nM on active mouse DPP1 enzyme, greater than 2.5 nM at DPP1 in HL-60 cells and greater than 15 nM at human DPP1 enzyme.

On to `CN1CCC2(CCc3cc(-c4ccc(C[C@@H](C#N)NC(=O)[C@@H]5CNCCCO5)cc4)ccc32)CC1` [Compound 26, (2S)—N-[(1S)-1-cyano-2-(4-{1′-methyl-2,3-dihydrospiro[indene-1,4′-piperidin]-5-yl}phenyl)ethyl]-1,4-oxazepane-2-carboxamide], for which the results for the IC50 at active mouse DPP1 enzyme, on DPP1 in HL-60 cells and on human DPP1 enzyme were greater than 20 nM, greater than 2.5 nM and greater than 15 nM, respectively.

Consider `N#CC(Cc1cc2c(cc1F)-c1ccc(F)cc1CO2)NC(=O)[C@@H]1CNCCCCO1` (mixture of isomers) [Compound B16, (2S)—N-(1-cyano-2-{2,8-difluoro-6H-benzo[c]chromen-3-yl}ethyl)-1,4-oxazocane-2-carboxamide], for which the IC50 was greater than 20 nM at active mouse DPP1 enzyme, greater than 2.5 nM on DPP1 in HL-60 cells and greater than 15 nM on human DPP1 enzyme.

`CO[C@@H]1CCNC[C@@H](C(=O)N[C@H](C#N)Cc2ccc(-c3ccc(C#N)cc3)cc2F)OC1` [Compound F4, (2S,7R)—N—((S)-1-cyano-2-(4′-cyano-3-fluoro-[1,1′-biphenyl]-4-yl)ethyl)-7-methoxy-1,4-oxazocane-2-carboxamide]: the half-maximal inhibitory concentration (IC50) was less than 5 nM on active mouse DPP1 enzyme, less than 1 nM at DPP1 in HL-60 cells and less than 5 nM on human DPP1 enzyme.

`CN1C(=O)CCc2cc(-c3ccc(C[C@@H](C#N)NC(=O)[C@@H]4CNCCCO4)cc3)ccc21` [Compound A21, (2S)—N-[(1S)-1-cyano-2-[4-(1-methyl-2-oxo-3,4-dihydroquinolin-6-yl)phenyl]ethyl]-1,4-oxazepane-2-carboxamide]: the IC50 on active mouse DPP1 enzyme is greater than 20 nM; on DPP1 in HL-60 cells, greater than 2.5 nM; on human DPP1 enzyme, greater than 15 nM.

On to `Cc1cn2cc(-c3ccc(C[C@@H](C#N)NC(=O)[C@@H]4CNCCCO4)cc3)cc2c(C)n1` [Compound A8, (2S)—N-[(1S)-1-cyano-2-(4-{1,3-dimethylpyrrolo[1,2-a]pyrazin-7-yl}phenyl)ethyl]-1,4-oxazepane-2-carboxamide], for which the IC50 on active mouse DPP1 enzyme was greater than 20 nM; at DPP1 in HL-60 cells it was greater than 2.5 nM; on human DPP1 enzyme, greater than 15 nM.

Regarding `N#C[C@H](Cc1cc2c(cc1F)-c1cc(C3COC3)c(F)cc1CO2)NC(=O)[C@@H]1CNCCCCO1` [Compound B10-B], the IC50 was less than 5 nM at active mouse DPP1 enzyme, 1 to 2.5 nM at DPP1 in HL-60 cells and 5 to 15 nM on human DPP1 enzyme.

As for `CCN1C(=O)Cc2ccc(-c3ccc(C[C@@H](C#N)NC(=O)[C@@H]4CNCCCO4)cc3)cc21` [Compound 32, (2S)—N-[(1S)-1-cyano-2-[4-(1-ethyl-2-oxo-3H-indol-6-yl)phenyl]ethyl]-1,4-oxazepane-2-carboxamide], the IC50 at active mouse DPP1 enzyme is greater than 20 nM.
